Results taken from ChEMBL document CHEMBL1201862, “PubChem BioAssay data set” (2004).
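Growth conditions: 96-well plates. Treatment: test compound, 48 hours, 5 concentrations. Analysis: linear interpolation between bracketing concentrations; unreached endpoints set to highest concentration. Abbreviation: GI50, concentration required for 50% inhibition of growth.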 The source made the active and inactive calls. No stated cut-off is given here; in the data, active = GI50 up to about 1.1 µM and inactive = higher.

What was measured:
Test in all cases: growth of human tumour cells (NCI), 48 h
OVCAR-8 = tested on: OVCAR-8
DU-145 = tested on: DU-145
PC-3 = tested on: PC-3
HCT-15 = tested on: HCT-15
RXF 393 = tested on: RXF 393
COLO 205 = tested on: COLO 205
SN12C = tested on: SN12C
IGROV-1 = tested on: IGROV-1
NCI-H522 = tested on: NCI-H522
MDA-MB-435 = tested on: MDA-MB-435
UACC-62 = tested on: UACC-62
TK-10 = tested on: TK-10
RPMI-8226 = tested on: RPMI-8226
SK-OV-3 = tested on: SK-OV-3
MDA-MB-231 = tested on: MDA-MB-231
SF-539 = tested on: SF-539
MOLT-4 = tested on: MOLT-4
HOP-92 = tested on: HOP-92
OVCAR-3 = tested on: OVCAR-3
SK-MEL-28 = tested on: SK-MEL-28
U-251 = tested on: U-251
Malme-3M = tested on: Malme-3M
ACHN = tested on: ACHN
OVCAR-5 = tested on: OVCAR-5
BT-549 = tested on: BT-549
UO-31 = tested on: UO-31
HOP-62 = tested on: HOP-62
CCRF-CEM = tested on: CCRF-CEM
SNB-19 = tested on: SNB-19
SK-MEL-5 = tested on: SK-MEL-5
CAKI-1 = tested on: CAKI-1
HCC 2998 = tested on: HCC 2998
NCI-H226 = tested on: NCI-H226
SNB-75 = tested on: SNB-75
SF-268 = tested on: SF-268
HL-60 = tested on: HL-60
KM12 = tested on: KM12
M14 = tested on: M14
786-0 = tested on: 786-0
Hs-578T = tested on: Hs-578T
EKVX = tested on: EKVX
LOX IMVI = tested on: LOX IMVI
K562 = tested on: K562
T47D = tested on: T47D
HCT-116 = tested on: HCT-116
HT-29 = tested on: HT-29
OVCAR-4 = tested on: OVCAR-4
SR = tested on: SR
NCI-H460 = tested on: NCI-H460
SW-620 = tested on: SW-620
A498 = tested on: A498
MCF7 = tested on: MCF7
SK-MEL-2 = tested on: SK-MEL-2
SF-295 = tested on: SF-295
UACC-257 = tested on: UACC-257
A549 = tested on: A549
NCI/ADR-RES = tested on: NCI/ADR-RES
NCI-H23 = tested on: NCI-H23
MDA-N = tested on: MDA-N

Compound: CCN(CC)CC(O)c1ccc2ccc3ccccc3c2c1 (stereo not drawn)
- GI50 (OVCAR-8): 16.7 µM (inactive)
- GI50 (DU-145): 19 µM (inactive)
- GI50 (PC-3): 15.8 µM (inactive)
- GI50 (HCT-15): 16.3 µM
- GI50 (RXF 393): 16.8 µM (inactive)
- GI50 (COLO 205): 13.9 µM (inactive)
- GI50 (SN12C): 16.3 µM (inactive)
- GI50 (IGROV-1): 16.2 µM (inactive)
- GI50 (NCI-H522): 15.6 µM (inactive)
- GI50 (MDA-MB-435): 16.3 µM (inactive)
- GI50 (UACC-62): 15.3 µM (inactive)
- GI50 (TK-10): 15.8 µM (inactive)
- GI50 (RPMI-8226): 18.9 µM (inactive)
- GI50 (SK-OV-3): 16 µM (inactive)
- GI50 (MDA-MB-231): 14.5 µM (inactive)
- GI50 (SF-539): 12.6 µM (inactive)
- GI50 (MOLT-4): 16.4 µM (inactive)
- GI50 (HOP-92): 14.2 µM (inactive)
- GI50 (OVCAR-3): 15.7 µM (inactive)
- GI50 (SK-MEL-28): 19.7 µM (inactive)
- GI50 (U-251): 13.3 µM (inactive)
- GI50 (Malme-3M): 16.9 µM (inactive)
- GI50 (ACHN): 14.3 µM (inactive)
- GI50 (OVCAR-5): 13.6 µM (inactive)
- GI50 (BT-549): 15.8 µM (inactive)
- GI50 (UO-31): 11.2 µM (inactive)
- GI50 (HOP-62): 16.1 µM (inactive)
- GI50 (CCRF-CEM): 23.7 µM (inactive)
- GI50 (SNB-19): 14.7 µM (inactive)
- GI50 (SK-MEL-5): 13.9 µM (inactive)
- GI50 (CAKI-1): 13.1 µM (inactive)
- GI50 (HCC 2998): 11 µM (inactive)
- GI50 (NCI-H226): 13.6 µM (inactive)
- GI50 (SNB-75): 19.1 µM (inactive)
- GI50 (SF-268): 17.8 µM (inactive)
- GI50 (HL-60): 14.1 µM (inactive)
- GI50 (KM12): 15.4 µM (inactive)
- GI50 (M14): 16.3 µM (inactive)
- GI50 (786-0): 12.9 µM (inactive)
- GI50 (Hs-578T): 18.7 µM (inactive)
- GI50 (EKVX): 14.1 µM (inactive)
- GI50 (LOX IMVI): 17.9 µM (inactive)
- GI50 (K562): 17 µM (inactive)
- GI50 (T47D): 20 µM (inactive)
- GI50 (HCT-116): 15.3 µM (inactive)
- GI50 (HT-29): 11.5 µM (inactive)
- GI50 (OVCAR-4): 17.4 µM (inactive)
- GI50 (SR): 5.69 µM (inactive)
- GI50 (NCI-H460): 17.5 µM (inactive)
- GI50 (SW-620): 18.5 µM (inactive)
- GI50 (A498): 12.6 µM (inactive)
- GI50 (MCF7): 14.8 µM (inactive)
- GI50 (SK-MEL-2): 16.1 µM (inactive)
- GI50 (SF-295): 15.2 µM (inactive)
- GI50 (UACC-257): 16.4 µM (inactive)
- GI50 (A549): 15.7 µM (inactive)
- GI50 (NCI/ADR-RES): 16.3 µM (inactive)
- GI50 (NCI-H23): 16.9 µM (inactive)
- GI50 (MDA-N): 15.6 µM (inactive)

Compound: Oc1cc(-c2ccc(F)cc2)nc2ncc(Cl)cc12
- GI50 (OVCAR-8): 38.5 µM (inactive)
- GI50 (DU-145): 21.4 µM (inactive)
- GI50 (PC-3): 20.2 µM (inactive)
- GI50 (HCT-15): 4.62 µM
- GI50 (RXF 393): 17.2 µM (inactive)
- GI50 (COLO 205): 22.3 µM (inactive)
- GI50 (SN12C): > 84.1 µM (inactive)
- GI50 (IGROV-1): 17.1 µM (inactive)
- GI50 (NCI-H522): 10.5 µM (inactive)
- GI50 (MDA-MB-435): 2.82 µM (inactive)
- GI50 (UACC-62): 9.71 µM (inactive)
- GI50 (TK-10): > 83.4 µM (inactive)
- GI50 (RPMI-8226): 19 µM (inactive)
- GI50 (SK-OV-3): 45.5 µM (inactive)
- GI50 (MDA-MB-231): > 65.5 µM (inactive)
- GI50 (SF-539): 27.6 µM (inactive)
- GI50 (MOLT-4): 20.7 µM (inactive)
- GI50 (HOP-92): 2.94 µM (inactive)
- GI50 (OVCAR-3): 20.6 µM (inactive)
- GI50 (SK-MEL-28): 58.5 µM (inactive)
- GI50 (U-251): 21.7 µM (inactive)
- GI50 (Malme-3M): 15.7 µM (inactive)
- GI50 (ACHN): > 73.1 µM (inactive)
- GI50 (OVCAR-5): 55.3 µM (inactive)
- GI50 (BT-549): > 100 µM (inactive)
- GI50 (UO-31): > 85.9 µM (inactive)
- GI50 (HOP-62): 32.2 µM (inactive)
- GI50 (CCRF-CEM): 18.7 µM (inactive)
- GI50 (SNB-19): 38 µM (inactive)
- GI50 (SK-MEL-5): 6.93 µM (inactive)
- GI50 (CAKI-1): 33 µM (inactive)
- GI50 (HCC 2998): 58.6 µM (inactive)
- GI50 (NCI-H226): 3.03 µM (inactive)
- GI50 (SNB-75): 11.7 µM (inactive)
- GI50 (SF-268): 67 µM (inactive)
- GI50 (HL-60): 3.38 µM (inactive)
- GI50 (KM12): 6.17 µM (inactive)
- GI50 (M14): 26.9 µM (inactive)
- GI50 (786-0): 32.7 µM (inactive)
- GI50 (Hs-578T): 19.9 µM (inactive)
- GI50 (EKVX): 30.3 µM (inactive)
- GI50 (LOX IMVI): 28.6 µM (inactive)
- GI50 (K562): 4.21 µM (inactive)
- GI50 (T47D): 48.4 µM (inactive)
- GI50 (HCT-116): 9.51 µM (inactive)
- GI50 (HT-29): 26.5 µM (inactive)
- GI50 (OVCAR-4): > 77.3 µM (inactive)
- GI50 (SR): 3.09 µM (inactive)
- GI50 (NCI-H460): 15.4 µM (inactive)
- GI50 (SW-620): 11.1 µM (inactive)
- GI50 (A498): 17.4 µM (inactive)
- GI50 (MCF7): 12.3 µM (inactive)
- GI50 (SK-MEL-2): 26.2 µM (inactive)
- GI50 (SF-295): 18.1 µM (inactive)
- GI50 (UACC-257): > 68.9 µM (inactive)
- GI50 (A549): 35.5 µM (inactive)
- GI50 (NCI/ADR-RES): 18 µM (inactive)
- GI50 (NCI-H23): 38.2 µM (inactive)
- GI50 (MDA-N): 2.94 µM (inactive)
